From patent US8283324B2, “Immunomodulatory and anti-tumour peptides” (Centro de Ingenieria Genetica y Biotecnologia, priority 2006, dated 2012)

Columns and labels:
[1] = competition ELISA for LPS-binding capacity; parameters: species or system E. coli; conditions: competition with biotinylated LALF32-51 at 0.2 μM; analogous peptides 10 μM to 0.01 μM; FIG. 1A
Procedure: This assay consists on a competition ELISA system (Hardy E., et al (1994) Enhanced ELISA sensitivity using TCA for efficient coating of biologically active LPS or Lipid A to the solid phase. J. Immunol. Meth. Vol. 176:111-116). Polystyrene plates (Costar, USA) were coated with LPS from E. coli 0111:B4 (1 μg/ml) with 0.2% trichloroacetic acid (TCA). Plates were incubated overnight at 37° C. and further washed ten times with 1× phosphate-buffered saline (1×PBS) plus 0.1% tween-20 (washing solution). The binding of analogous peptides to the LPS fixed to the solid surface was evaluated by a competition ELISA with the biotinylated LALF32-51 peptide at 0.2 μM, obtaining a 90% of maximum LPS binding. To estimate the inhibition curves, different concentrations of the analogous peptides were used, from 10 μM to 0.01 μM and the curve of the LALF32-51 peptide as experimental control. The biotinylated LALF32-51 was incubated in the presence of the analogous peptides for 2 h at 37° C. and plates were washed 5 times after that time with washing solution. The biotinylated LALF32-51 bound to LPS was detected by incubating for 45 min at 37° C. with a streptavidin-peroxidase conjugate at a 1:2,000 dilution. Plates were washed 5 times with washing solution and the substrate solution was added (0.05 M citrate-phosphate buffer, pH 5.5, 1 tablet of 3,3′,5,5′-tetramethylbenzidine and 0.025% hydrogen peroxide). After 15 min incubation, the reaction was stopped by adding 2 M sulphuric acid. The absorbance was quantified at 450 nm in a plate reader (Sensident Scan). There is a correlation between optical density values and the LPS-binding capacity of analogous peptides. Analogous peptides with higher LPS-binding capacity show inhibition curves of lower O.D. compared to the inhibition curve of the LALF32-51 peptide.
Analogous peptides with lower LPS-binding capacity present inhibition curves with […], compared to the inhibition curve of the LALF32-51 peptide.
FIG. 1B represents the inhibition percentages of analogous peptides, at a fixed […] concentration, according to their capacity to displace the binding of the biotinylated LALF32-51 (0.2 μM) to LPS adsorbed to the solid surface. % de inhibición={1−(([O.D.]sample−[O.D.]min)/([O.D.]max−[O.D.]min))}×100 [O.D.] sample: Optical density value in the presence of a fixed concentration of analogous peptides; [O.D.] min: ELISA background; [O.D.] max: Optical density value without analogous peptides.

IL-12 gene = IL-12 gene expression in human mononuclear cells (RT-PCR); type: cell-based; conditions: 40 μg/ml, 18 h; mRNA normalized against β-actin; FIG. 3A
Procedure: (§1) For this assay, human mononuclear cells were isolated by a Ficoll-Hypaque gradient from a leukocyte concentrate or “Buffy Coat” of a donor. Up to 5×10^6 were seeded in 24-well plates in RPMI 1640 medium supplemented with 10% calf fetal serum. Each peptide was further added at 40 μg/ml in a 0.1 ml volume of RPMI medium and cells were cultured for 18 h at 37° C. and 5% of CO2. Total RNA was extracted by using the TriReagent method. Afterwards, the expressions of IFN-α, IFN-γ and IL-12 genes were determined by the reverse transcription reaction and PCR amplification (RT-PCR kit, Perkin Elmer). Results are shown as relative amounts of messenger RNA normalized against expression levels of the β-actin housekeeping gene.

IFN-γ gene = IFN-γ gene expression in human mononuclear cells (RT-PCR); type: cell-based; conditions: 40 μg/ml, 18 h; mRNA normalized against β-actin; FIG. 3A
Procedure: as §1

[2] = competition ELISA for heparin-binding capacity; conditions: for heparin binding: peptides at 2 μM with 250 units of heparin, FIG. 2
Procedure: This assay consists on a competition ELISA system, similar to the previously described one. The biotinylated LALF32-51 peptide was adsorbed to polystyrene plates (Costar, USA) in 1×PBS and incubated overnight at 4° C. Analogous peptides L-2, L-8, L-12 and L-20 were mixed at 2 μM with 250 units of heparin (Sodic Heparin, 5,000 U/ml, Liorad) in 1×PBS plus 0.1% of bovine serum albumin (BSA). Afterwards, mixes were added to an ELISA plate containing 0.02 μM of the biotinylated LALF32-51 peptide adsorbed to the solid surface. After a 1 h-incubation at room temperature, plates were washed five times with washing solution and the biotinylated LALF32-51 peptide fixed to the solid surface was detected by incubating for 45 min at 37° C. with streptavidin-peroxidase conjugate at a 1:2,000. Afterwards, plates were washed five times with washing solution and the substrate solution was added. After an additional incubation for 15 min, the reactions were stopped with 2 M sulphuric acid solution. The lack of heparin binding to the analogous peptides correlates with the […] optical density, because they are unable to displace the heparin bound to the biotinylated LALF32-51 peptide adsorb to the solid surface. The unlabeled LALF32-51 peptide at a 100× molar excess was used as control of the assay.

TC-1 tumor cells = test: anti-tumoral effect in the TC-1 tumor model; type: in vivo; conditions: 4 mg per kg s.c.; for survival of mice / tumor progression (tumor mass): at 100 mm^3 tumor volume and after 10 days, FIG. 4; for survival of animals compared to the LALF32-51 peptide: Log Rank, *p<0.05
Procedure: Eight-to-ten weeks-old C57BI/6 female mice were used for this assay (n=10 animals per experimental group). For tumor graft, TC-1 tumor cells derived from C57BI/6 malignant epithelial lung cells were used, being resuspended in phosphate-buffered saline (PBS). An amount of 50,000 cells in a 200 μl volume was inoculated to mice by subcutaneous route in the right hind limb. The first peptide administration was carried out by subcutaneous route in the right flank once tumor reached a 100 mm^3 volume, and the second was carried out after 10 days. In this assay, a 4 mg per kg of weight dose was evaluated (80 μg/mice). Animal survival and tumor mass were the parameters evaluated to measure the anti-tumoral effect peptides of interest, as shown in FIGS. 4A and 4B. […] The Log Rank method was used as statistical analysis for detecting significant differences between groups.

IFN-α gene = IFN-α gene expression in human mononuclear cells (RT-PCR); type: cell-based; conditions: 40 μg/ml, 18 h; for expression of the IFN-α gene compared to the LALF32-51 peptide: FIG. 3B; for expression of the IFN-α gene: mRNA normalized against β-actin, FIG. 3A
Procedure: as §1

Row | heparin binding (assay control) ([2]; unlabeled peptide at a 100× molar excess) | Sequence | LPS-binding capacity [1] | expression of the IL-12 gene (IL-12 gene) | expression of the IFN-γ gene (IFN-γ gene) | heparin binding [2] | survival of mice (TC-1 tumor cells) | tumor progression (tumor mass) (TC-1 tumor cells) | survival of animals compared to the LALF32-51 peptide (TC-1 tumor cells) | expression of the IFN-α gene compared to the LALF32-51 peptide (IFN-α gene) | expression of the IFN-α gene (IFN-α gene)
1 |  | HYAIKPTFRRLKWKYKGKFW [Peptide L-3, alanine-substituted analogue of LALF 32-51] | higher LPS binding capacity |  |  |  |  |  |  |  | 
2 |  | HYRIKPTARRLKWKYKGKFW [Peptide L-8, alanine-substituted analogue of LALF 32-51] | lose the capacity to bind LPS | capable of inducing the expression | capable of inducing the expression | unable to bind heparin | prolonging survival of mice | effective for inhibiting tumor progression | significantly increase the survival of animals | more effective | capable of inducing the expression
3 |  | HYRIKPTFARLKWKYKGKFW [Peptide L-9, alanine-substituted analogue of LALF 32-51] | retaining that capacity |  |  |  |  |  |  |  | 
4 |  | HYRIKPTFRRLAWKYKGKFW [Peptide L-12, alanine-substituted analogue of LALF 32-51] | lose the capacity to bind LPS | capable of inducing the expression | capable of inducing the expression | unable to bind heparin | prolonging survival of mice | effective for inhibiting tumor progression | significantly increase the survival of animals | more effective | capable of inducing the expression
5 |  | HYRIKPTFRRLKWKYKGKAW [Peptide L-19, alanine-substituted analogue of LALF 32-51] | retaining that capacity |  |  |  |  |  |  |  | 
6 |  | HYRIKPTFRRLKWKYKGKFA [Peptide L-20, alanine-substituted analogue of LALF 32-51] | lose the capacity to bind LPS | capable of inducing the expression | capable of inducing the expression | unable to bind heparin | prolonging survival of mice | effective for inhibiting tumor progression | significantly increase the survival of animals |  | capable of inducing the expression
7 | binding to heparin | HYRIKPTFRRLKWKYKGKFW [LALF32-51, reference compound] |  |  |  |  |  |  |  |  | 
